# Measurements reported in patent publication US20240277711A1, “COMPOUNDS FOR THE TREATMENT OF GLIOBLASTOMA” (Merck Patent GmbH, priority 2021, published 2024).
# Columns and labels:
# glioblastoma = details: in vivo; cited from earlier work
# [1] = system: GL-261 met knock-out cells; test: GL-261 met knock-out glioma in wildtype mice; assay type: in vivo, mouse; details: MET disrupted in tumor, tepotinib + 10 Gy
# Protocol: (§1) Kaplan-Meier survival curves are shown. B, C. […] B. Kaplan-Meier survival curves were analyzed via log-rank test. C. Mice surviving in (B) were re-challenged after 13 weeks after initial tumor cell injection with GL-261 cell implantation into the contralateral hemisphere. Naïve mice implanted with GL-261 cells were used as controls. Kaplan-Meier survival curves are shown. D, E. GL-261 met knock-out cells were intracranially implanted into wildtype C57/B16 mice (D) or GL-261 wildtype cells were intracranially implanted into C57/B16 Rag1−/− mice (E). […] F. Analysis of median survival between treatment groups.
# Knockout clones were generated as described (Ran et al., 2013; Machado et al., 2019). Briefly, two MET-specific guide RNAs (5′-[…]-3′ and 5′-[…]-3′) were cloned into pSpCas9(BB)-2A-GFP and lipofectamine (Thermo) was used to co-transfect both plasmids. […]
# All in vitro and in vivo experiments reported here were performed in biological replicates, i.e., in independent experiments and with different passage numbers of cell lines. Statistical significance was assessed by two-sided unpaired t-test or two-way ANOVA with Bonferroni post-testing (GraphPad Prism). Tumor size was analyzed using the Mann-Whitney U non-parametric test. Survival was analyzed using a Kaplan-Meier survival plot followed by a log-rank (Mantel-Cox) test. […]
# GL-261 glioma [2] = test: GL-261 glioma in Rag1−/− mice; assay type: in vivo, mouse; details: tepotinib + 10 Gy
# Protocol: as §1
# (§2) All in vitro and in vivo experiments reported here were performed in biological replicates, i.e., in independent experiments and with different passage numbers of cell lines. Statistical significance was assessed by two-sided unpaired t-test or two-way ANOVA with Bonferroni post-testing (GraphPad Prism). Tumor size was analyzed using the Mann-Whitney U non-parametric test. Survival was analyzed using a Kaplan-Meier survival plot followed by a log-rank (Mantel-Cox) test. Differences were considered statistically significant when the p value was below 0.05.
# [3] = system: ligand-independent Hs746T tumors; details: before tumor became resistant and progressed; cited from earlier work
# SMA-560 gliomas [4] = test: Orthotopic syngeneic SMA-560 glioma model in vivo (survival, histology); parameters: species or system mouse
# Protocol: B. Kaplan-Meier survival curve. C. […] Sections were counterstained with hematoxylin (blue).
# Sections (8 μm thick) of tumor-bearing cryopreserved brains were prepared. The mean tumor size was determined by the largest tumor area in the horizontal plane on hematoxylin and eosin (H&E)-stained sections by multiplying the longest perpendicular diameters from a low-magnification (2.5×) image. Brain sections were immunostained with Ki-67 antibody (clone SP6, Epitomics, Burlingame, CA), anti-mouse CD31 antibody (clone MEC 13.3, BD Pharmingen, Franklin Lakes, NJ), anti-CD45 antibody (clone 30-F11; BioLegend), anti-CD3 (clone 17A2; BD Biosciences, San Jose, CA) or anti-CD11b (clone M1/70; BD Biosciences) and histofine simple stain mouse max pro anti-rabbit secondary antibody (Nichirei Biosciences, Tokyo, Japan) to determine proliferation. Anti-rat N-Histofine Simple Stain Mouse MAX PO (Nichirei Biosciences) and DAB chromogen were used to stain blood vessels. The percentage of Ki-67-positive tumor nuclei and the mean number of CD31-positive intratumoral vessels per high power field (×40 objective) were calculated using three randomly selected different microscopic fields of each section for three 3 mice per group. Alternatively, DAB-positive signals were quantified using the ImageJ software (https://imagej.nih.gov/) (Crowe and Yue, 2019).
# as §2
# mouse glioma cell lines [5] = test: Clonogenic survival (clonogenicity) assay in mouse glioma cell lines; assay type: cell-based; details: concentrations up to 1 μM
# mouse glioma cell lines [6] = test: Acute growth inhibition assay (MTT) in mouse glioma cell lines; assay type: cell-based; details: concentrations up to 1 μM
# GL-261 glioma [7] = test: Orthotopic syngeneic GL-261 glioma model in wildtype mice; assay type: in vivo, mouse
# Protocol: as §1, §2
# [8] = system: murine glioma cell invasiveness; test: Murine glioma cell invasiveness in vitro without or with irradiation; assay type: cell-based, mouse; details: without or with irradiation (2 Gy, 8 Gy)
# From the text: Next, we evaluated the motogenic activity of HGF/MET in response to irradiation in vitro. Low-dose irradiation (2 Gy) increased invasiveness in SMA-540 and SMA-560 cells whereas high-dose irradiation (8 Gy) reduced invasiveness in SMA-497 and SMA-560 cells.
# SMA-560 gliomas [9] = test: SMA-560 glioma in immunodeficient Rag1−/− mice; assay type: in vivo, mouse; details: tepotinib 100 mg/kg daily + 10 Gy
# glioma cells = test: Sensitization to irradiation in vitro (clonogenic survival); assay type: cell-based, mouse
# [10] = system: HGF-dependent U87MG tumors; details: before tumor became resistant and progressed; cited from earlier work
# mouse cytokines = test: Proteome profiler cytokine array of SMA-560 tumor lysates ex vivo; assay type: in vivo
# Protocol: In A, raw data are expressed as pixel density measured by Image J. In B, fold-changes indicate down-regulation (left) or up-regulation (right) versus control tumors. A difference down or up of 2-fold versus control was used as cut-off to assign a target to any group.
# For the simultaneous determination of relative levels of mouse cytokines in vivo, the Mouse XL Cytokine Array Kit from R&D Systems was used (ARY028, Minneapolis, MN). Tissue lysates were prepared by electric homogenizer in ice-cold lysis buffer and supplemented with protease inhibitor cocktail, followed by centrifugation to remove cellular debris; 150 μg protein was used for each tumor sample and nitrocellulose membrane (control, monotherapies, combination therapy). To compare the proportion of protein levels in each tumor specimen, the quantification of pixel density of each spot of the array was performed using Image J (version 1.32j) software (National Institutes of Health, Bethesda, MD, http://rsb.info.nih.gov/ij/).
# [11] = combination group (tepotinib + radiotherapy)
compound,measurement,setting,value
onartuzumab: MET antibody,efficacy outcome in glioblastoma,glioblastoma,negative outcomes
"CN1CCC(COc2cnc(-c3cccc(Cn4nc(-c5cccc(C#N)c5)ccc4=O)c3)nc2)CC1 [tepotinib, 3-(1-{3-[5-(1-methyl-piperidin-4-ylmethoxy)-pyrimidin-2-yl]-benzyl}-6-oxo-1,6-dihydro-pyridazin-3-yl)-benzonitrile]",synergy of irradiation with tepotinib,[1],synergy was also lost
same,synergy of irradiation with tepotinib,GL-261 glioma [2],synergy with tepotinib was lost
same,tumor growth inhibition and regression,[3],Tumor growth inhibition and regression of tumors by tepotinib was temporarily observed
same,reduction in CD31 immunoreactivity,SMA-560 gliomas [4]; combination arm (tepotinib + radiotherapy),2.8 fold
same,Ki-67-positive cells,SMA-560 gliomas [4]; [11],strong decrease of Ki-67-positive cells
same,mice alive and free from tumor at day 80,SMA-560 gliomas [4]; [11],three
same,survival,SMA-560 gliomas [4]; combination with radiotherapy (single dose 12 Gy),around 60 days
same,survival,SMA-560 gliomas [4]; monotherapy,around 20 days
same,reduction in CD31 immunoreactivity,SMA-560 gliomas [4]; monotherapy arm,1.8 fold
same,percentage of Ki-67-stained nuclei,SMA-560 gliomas [4]; monotherapy group,remained unaffected
same,effect on survival,"SMA-560 gliomas [4]; tepotinib alone, 100 mg/kg daily",Neither tepotinib alone nor radiotherapy alone had a significant effect on survival
same,mice alive and free from tumor at day 80,SMA-560 gliomas [4]; tepotinib group,one
same,clonogenicity,mouse glioma cell lines [5],resistant to inhibitory effects of tepotinib
same,acute growth inhibition,mouse glioma cell lines [6],resistant to inhibitory effects of tepotinib
same,long-term survivors,GL-261 glioma [7]; co-treatment group,approximately 50%
same,survival,"GL-261 glioma [7]; combination therapy (tepotinib + 10 Gy), wildtype mice",prominent survival prolongation
same,outcome of rechallenge of long-term survivors with GL-261 cells,"GL-261 glioma [7]; rechallenge at 90 days, followed another 50 days",all 4 animals remained asymptomatic
same,invasiveness,[8],"suppressed invasiveness in all cell lines without or with irradiation, except in low dose-irradiated SMA-540 cells"
same,synergistic effect of combination therapy on survival,SMA-560 gliomas [9],strongly attenuated
same,sensitization to inhibitory effects of irradiation in vitro,glioma cells; concentrations known to inhibit MET phosphorylation (100 nM),failed to sensitize glioma cells to the inhibitory effects of irradiation
same,sensitization to irradiation in presence of exogenous HGF,glioma cells; with exogenous HGF (50 ng/ml),no sensitization to irradiation by tepotinib became apparent
same,tumor growth inhibition and regression,[10],Tumor growth inhibition and regression of tumors by tepotinib was temporarily observed
same,"irradiation-induced cytokines (VEGF, ICAM-1, MMP-2/-9, IL-1a, CXCL10 etc.)",mouse cytokines; combination with irradiation,an induction upon irradiation that was attenuated by tepotinib
same,cytokine levels in tumor tissue lysates,mouse cytokines; tepotinib monotherapy,reduced the levels of some cytokines
AMG-102: HGF antibody,efficacy outcome in glioblastoma,glioblastoma,negative outcomes
